According to patent US4486419A, “5,2',3',4',4",6"-Hexadeoxykanamycin and its 1-N-acylated derivative” (Zaidan Hojin Biseibutsu Kagaku Kenkyu Kai, priority 1982, dated 1984):
≈ marks a conversion by molar mass, not a printed value. Read-outs that look alike come from different tables or passages of the source.

Legend:
Format in all cases: cell-based
Serratia SOU = details: nutrient agar, 37° C., 18 hours
[1] = system: Pseudomonas aeruginosa ROS134/PU21; details: ROS134/PU21, 18 h
Salmonella typhi T-63 = details: Salmonella enterica, 18 h
[2] = system: Pseudomonas aeruginosa 21-75; details: 2175, nutrient agar, 37° C., 18 hours
[3] = system: Micrococcus luteus PCI 1001; details: PCI1001, nutrient agar, 37° C., 18 hours
[4] = system: kanamycin-resistant bacteria; assay: antibacterial activity against kanamycin-resistant bacteria (in words); details: even with the kanamycin-resistant bacteria
[5] = system: Shigella flexneri 4b JS11811; details: 4BJS11811, nutrient agar, 37° C., 18 hours
[6] = system: Pseudomonas aeruginosa 99
Proteus vulgaris OX19 = details: nutrient agar, 37° C., 18 hours
[7] = system: Shigella dysenteriae JS 11910; details: JS11910, 18 h
Shigella sonnei JS11746 = details: nutrient agar, 37° C., 18 hours
[8] = system: Bacillus subtilis PCI 219; details: PCI219, nutrient agar, 37° C., 18 hours
[9] = system: Escherichia coli K-12 ML 1629; details: K12ML1629, nutrient agar, 37° C., 18 hours
bacterial strains = assay: antibacterial activity (in words)
[10] = Pseudomonas aeruginosa, 99, 18 h

Structure (SMILES) | MIC (Serratia SOU) | MIC [1] | MIC (Salmonella typhi T-63) | MIC [2] | MIC [3] | antibacterial activity compared with amikacin [4] | MIC [5] | MIC [6, 10] | MIC (Proteus vulgaris OX19) | MIC [7] | MIC (Shigella sonnei JS11746) | MIC [8] | MIC [9] | antibacterial activity (bacterial strains) | MIC ([6]; Pseudomonas aeruginosa, 99, nutrient agar, 37° C., 18 hours, read-out: MIC)
C[C@@H]1C[C@H](N)[C@@H](O)[C@@H](O[C@@H]2C[C@H](O[C@@H]3CCC[C@@H](CN)O3)[C@@H](N)C[C@H]2NC(=O)[C@@H](O)CCN)O1 [Hexadeoxyamikacin, 1-N-[(S)-4-amino-2-hydroxybutyryl]-5,2',3',4',4",6"-hexadeoxykanamycin] | 50 µg/mL (≈ 102 µM) | > 100 µg/mL | 0.78 µg/mL (≈ 1.59 µM) | 100 µg/mL (≈ 204 µM) | 6.25 µg/mL (≈ 12.8 µM) | antibacterial activity as high as that of amikacin | 6.25 µg/mL (≈ 12.8 µM) | 50 µg/mL (≈ 102 µM) | 0.78 µg/mL (≈ 1.59 µM) | 6.25 µg/mL (≈ 12.8 µM) | 3.13 µg/mL (≈ 6.39 µM) | 0.78 µg/mL (≈ 1.59 µM) | 1.56 µg/mL (≈ 3.19 µM) |  | 
C[C@@H]1C[C@H](N)[C@@H](O)[C@@H](O[C@@H]2C[C@H](O[C@@H]3CCC[C@@H](CN)O3)[C@@H](N)C[C@H]2N)O1 [Hexadeoxykanamycin, 5,2',3',4',4",6"-hexadeoxykanamycin] | > 100 µg/mL | > 100 µg/mL | 0.78 µg/mL (≈ 2.01 µM) | > 100 µg/mL | 12.5 µg/mL (≈ 32.2 µM) |  | 6.25 µg/mL (≈ 16.1 µM) | > 100 µg/mL | 1.56 µg/mL (≈ 4.02 µM) | 6.25 µg/mL (≈ 16.1 µM) | 3.13 µg/mL (≈ 8.06 µM) | 0.78 µg/mL (≈ 2.01 µM) | 25 µg/mL (≈ 64.3 µM) | antibacterial activity as high as that of the parent kanamycin A | 
NCC[C@H](O)C(=O)N[C@@H]1C[C@H](N)[C@@H](O[C@H]2O[C@H](CN)[C@@H](O)[C@H](O)[C@H]2O)[C@H](O)[C@H]1O[C@H]1O[C@H](CO)[C@@H](O)[C@H](N)[C@H]1O [Amikacin, 1-N-[(S)-4-amino-2-hydroxybutyryl]kanamycin A, reference compound] | 25 µg/mL (≈ 42.7 µM) | 100 µg/mL (≈ 171 µM) | 0.39 µg/mL (≈ 0.666 µM) | 12.5 µg/mL (≈ 21.3 µM) | 3.13 µg/mL (≈ 5.34 µM) |  | 3.13 µg/mL (≈ 5.34 µM) |  | 1.56 µg/mL (≈ 2.66 µM) | 3.13 µg/mL (≈ 5.34 µM) | 3.13 µg/mL (≈ 5.34 µM) | 0.39 µg/mL (≈ 0.666 µM) | 1.56 µg/mL (≈ 2.66 µM) |  | 6.25 µg/mL (≈ 10.7 µM)
